Assay results: ChEMBL document CHEMBL5257025, “Artemisinin-Derived Dimers: Potent Antimalarial and Anticancer Agents” (J Med Chem, 2016)
Each block holds one molecule with its values, some of them ahead of it.

Tests used:
HL-60 [1] = test: Antiproliferative activity against human HL-60 cells assessed as cell growth inhibition measured after 48 hrs by SRB assay; assay type: functional, cell-based; conditions: HL-60, 48 h
Plasmodium falciparum [2] = test: microbe, parasite or virus in culture; conditions: Dd2
Description: Antiplasmodial activity against Plasmodium falciparum Dd2 assessed as inhibition of parasitic growth

Plasmodium falciparum [3] = test: Antimalarial activity against Plasmodium falciparum W2 assessed as reduction in malarial growth; assay type: functional, organism-based
BT-549 [4] = test: Antiproliferative activity against human BT-549 cells assessed as cell growth inhibition measured after 72 hrs by SRB assay; assay type: functional, cell-based; conditions: BT-549, 72 h
Plasmodium falciparum [5] = test: Antimalarial activity against Plasmodium falciparum NF54 assessed as reduction in cell growth; assay type: functional, organism-based
Plasmodium falciparum [6] = test: Antimalarial activity against Plasmodium falciparum K1 assessed as inhibition of malarial growth; assay type: functional, organism-based
CAKI-2 = test: Antiproliferative activity against human CAKI-2 cells assessed as inhibition of cell growth; assay type: functional, cell-based
[7] = Cytotoxicity against African green monkey Vero cells; assay type: toxicity, cell-based; conditions: chlorocebus sabaeus, read-out: TC50 (the source's name)
[8] = Cytotoxicity against human HFF cells assessed as cell growth inhibition measured after 48 hrs by MTT assay; assay type: toxicity, cell-based
TRAMP-C2H = test: Cytotoxicity against mouse TRAMP-C2H cells assessed as inhibition of cell growth measured after 72 hs by MTT assay; assay type: functional, cell-based
[9] = Antiproliferative activity against human 1205Lu cells assessed as reduction in cell growth; assay type: functional, cell-based
HCT-116 = test: Antiproliferative activity against human HCT-116 cells assessed as growth after 48 hrs by MTT assay; assay type: functional, cell-based; conditions: HCT-116, 48 h
HeLa = test: Antiproliferative activity against human Hela cells assessed as cell growth inhibition measured after 48 hrs by MTT assay; assay type: functional, cell-based
C2G cell line = test: Cytotoxicity against mouse C2G cells assessed as inhibition of cell growth measured after 72 hrs by MTT assay; assay type: functional, cell-based
C2D cell line = test: Cytotoxicity against mouse C2D cell line assessed as inhibition of cell growth measured after 72 hrs by MTT assay; assay type: functional, cell-based
[10] = Cytotoxicity against rat MTLn3 cells assessed as cell growth inhibition; assay type: toxicity, cell-based
Plasmodium falciparum [11] = test: Antimalarial activity against Plasmodium falciparum 3D7 assessed as inhibition of malarial growth; assay type: functional, organism-based
Plasmodium falciparum [12] = test: Antimalarial activity against Plasmodium falciparum D10 assessed as inhibition of parasitic growth; assay type: functional, organism-based
Plasmodium falciparum [13] = test: microbe, parasite or virus in culture; conditions: K1
Description: Antiplasmodial activity against Plasmodium falciparum K1 assessed as inhibition of parasitic growth

Plasmodium falciparum [14] = test: microbe, parasite or virus in culture; conditions: D6
Description: Antiplasmodial activity against Plasmodium falciparum D6 assessed as inhibition of parasitic growth

[15] = Cytotoxicity against CHO cells assessed as reduction in cell viability; assay type: toxicity, cell-based, Cricetulus griseus; conditions: chinese hamster, read-out: TC50 (the source's name)
Plasmodium falciparum [16] = test: microbe, parasite or virus in culture; conditions: W2
Description: Antiplasmodial activity against Plasmodium falciparum W2 assessed as inhibition of cell growth

SK-MEL [17] = test: Antiproliferative activity against human SK-MEL cells assessed as reduction in cell viability incubated for 48 hrs by MTT assay; assay type: functional, cell-based
SK-OV-3 = test: Antiproliferative activity against human SK-OV-3 cells assessed as reduction in cell viability incubated for 48 hrs by MTT assay; assay type: functional, cell-based; conditions: SK-OV-3, 48 h
A549 = test: cells; conditions: Homo sapiens, A549, 48 h
HCT-15 = test: cells; conditions: Homo sapiens, HCT-15, 48 h
Description: Antiproliferative activity against human HCT-15 cells assessed as reduction in cell viability incubated for 48 hrs by MTT assay

KB = test: Antiproliferative activity against human KB cells assessed as reduction in cell viability incubated for 48 hrs by MTT assay; assay type: functional, cell-based
SK-MEL-2 = test: Antiproliferative activity against human SK-MEL-2 cells assessed as reduction in cell viability incubated for 48 hrs by MTT assay; assay type: functional, cell-based; conditions: SK-MEL-2, 48 h
Jurkat = test: Antiproliferative activity against human Jurkat cells assessed as reduction in cell viability incubated for 48 hrs by MTT assay; assay type: functional, cell-based
[18] = Cytotoxicity against pig LLC-PK1 cells; assay type: toxicity, cell-based, Sus scrofa; conditions: read-out: TC50 (the source's name)
XF498 = test: Antiproliferative activity against human XF498 cells assessed as reduction in cell viability incubated for 48 hrs by MTT assay; assay type: functional, cell-based; conditions: XF498, 48 h
ADR5000 cell line = test: Antiproliferative activity against human CEM/ADR5000 cells assessed as reduction in cell viability incubated for 48 hrs by MTT assay; assay type: functional, cell-based; conditions: ADR5000, 48 h
SK-VLB = test: Antiproliferative activity against human SK-VLB cells assessed as reduction in cell viability incubated for 48 hrs by MTT assay; assay type: functional, cell-based
SK-MEL [19] = test: Antiproliferative activity against human SK-MEL cells assessed as reduction in cell growth inhibition; assay type: functional, cell-based
HL-60 [20] = test: Antiproliferative activity against human HL-60 cells assessed as reduction in cell viability incubated for 48 hrs by MTT assay; assay type: functional, cell-based; conditions: HL-60, 48 h
BT-549 [21] = test: Antiproliferative activity against human BT-549 cells assessed as reduction in cell viability incubated for 48 hrs by MTT assay; assay type: functional, cell-based; conditions: BT-549, 48 h
Plasmodium berghei = test: In vivo antimalarial activity against Plasmodium berghei infected mouse model assessed as survival time at 8 mg/kg, po in presence of Mefloquine hydrochloride

SMILES: C[C@@H]1CC[C@H]2[C@@H](C)C(=O)O[C@@H]3O[C@@]4(C)CC[C@@H]1[C@]32OO4 [ARTEMISININ]
- IC50 (HL-60 [1]): 40000 nM
- IC50 (Plasmodium falciparum [2]): 6.9 nM
- IC50 (Plasmodium falciparum [3]): 6.6 nM
- IC50 (BT-549 [4]): 40000 nM
- IC50 (Plasmodium falciparum [5]): 6.9 nM
- IC50 (Plasmodium falciparum [6]): 7.81 nM
- IC50 (CAKI-2): 40000 nM
- CC50 [7]: > 1690 nM

SMILES: C[C@@H]1CC[C@H]2[C@@H](C)C(CC(CO)CC3O[C@H]4O[C@@]5(C)CC[C@H]6[C@H](C)CC[C@@H]([C@H]3C)[C@@]46OO5)O[C@H]3O[C@@]4(C)CC[C@@H]1[C@]32OO4 (stereo partly specified)
- IC50 at 48 h [8]: 48100 nM
- IC50 (TRAMP-C2H): 9.2 nM
- IC50 [9]: 4900 nM
- IC50 (HCT-116): 100 nM
- IC50 (HeLa): 1060 nM
- IC50 (Plasmodium falciparum [5]): 0.87 nM
- IC50 (C2G cell line): 15.4 nM
- IC50 (C2D cell line): 18.5 nM
- IC50 [10]: 43 nM

SMILES: C[C@H]1[C@@H](O)O[C@H]2O[C@@]3(C)CC[C@H]4[C@H](C)CC[C@@H]1[C@@]24OO3
- IC50 (Plasmodium falciparum [11]): 2.09 nM
- IC50 (Plasmodium falciparum [12]): 2.09 nM
- IC50 (Plasmodium falciparum [2]): 2.09 nM
- IC50 (Plasmodium falciparum [13]): 2.09 nM
- IC50 (Plasmodium falciparum [14]): 2.09 nM
- CC50 [15]: 148000 nM
- IC50 (Plasmodium falciparum [16]): 2.09 nM
- CC50 [7]: 1410 nM

SMILES: C[C@@H]1CC[C@H]2[C@@H](C)C(CC(CC3O[C@@H]4O[C@]5(C)CC[C@@H]6[C@@H](C)CC[C@H]([C@@H]3C)[C@]46OO5)C(=O)N/N=C/c3ccccc3O)O[C@H]3O[C@@]4(C)CC[C@@H]1[C@]32OO4 (stereo partly specified)
- IC50 [10]: 52 nM

- IC50 (SK-MEL [17]): 9 nM
- IC50 (SK-OV-3): 9 nM
- IC50 (A549): 9 nM
- IC50 (HCT-15): 9 nM
- IC50 (KB): 9 nM
- IC50 (SK-MEL-2): 9 nM
- IC50 (Jurkat): 9 nM
- IC50 (SK-VLB): 9 nM
- IC50 (SK-MEL [19]): 170 nM
- IC50 (HL-60 [20]): 9 nM
- IC50 (BT-549 [21]): 9 nM
SMILES: COc1cccc2c1C(=O)c1c(O)c3c(c(O)c1C2=O)C[C@@](O)(C(=O)CO)C[C@@H]3O[C@H]1C[C@H](N)[C@H](O)[C@H](C)O1 [DOXORUBICIN]
- CC50 [18]: 1290 nM
- IC50 (XF498): 9 nM
- IC50 (ADR5000 cell line): 9 nM

SMILES: C[C@@H]1CC[C@H]2[C@@H](C)C(CC(CC3O[C@@H]4O[C@]5(C)CC[C@@H]6[C@@H](C)CC[C@H]([C@@H]3C)[C@]46OO5)C[Si](C)(C)C)O[C@H]3O[C@@]4(C)CC[C@@H]1[C@]32OO4 (stereo partly specified)
- survival time (Plasmodium berghei): > 57 days
